From PubChem BioAssay (NCI) come the findings set out here.

Some test systems named below: HCT-15 colon; UACC-62 melanoma; TK-10 renal; K-562 leukemia; OVCAR-4 ovarian; OVCAR-8 ovarian; CCRF-CEM leukemia; NCI-H226 lung; SK-MEL-2 melanoma; SNB-19 CNS.
What all share (test): inhibition of tumour cell growth, NCI panel, 48 h

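48-hour exposure; five concentrations; linearly interpolated endpoints. The concentration for 50% growth inhibition is given as GI50. Definition used: TGI = concentration required for complete inhibition of growth.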

As to `CCCN(CCC)c1ccc(C=O)c(C)c1`, the GI50 with HCT-15 colon was 41.6 µM; in the test on UACC-62 melanoma it was 28.4 µM; in the test on TK-10 renal it was 41.6 µM; in the test with K-562 leukemia, 68.7 µM; with OVCAR-4 ovarian, 21.5 µM; with OVCAR-8 ovarian, 57.2 µM. Also, the GI50 in the test on CCRF-CEM leukemia is 46.8 µM; in the test on NCI-H226 lung, 11.3 µM; in the test with SK-MEL-2 melanoma, 30.9 µM; with SNB-19 CNS it was 60.9 µM. Moreover, the TGI in the test with HCT-15 colon, in the test with UACC-62 melanoma, in the test on TK-10 renal, in the test on K-562 leukemia, with OVCAR-4 ovarian and in the test on OVCAR-8 ovarian was greater than 100 µM in each case. For the same compound, the TGI in the test with CCRF-CEM leukemia is greater than 100 µM; with NCI-H226 lung, greater than 71.5 µM; in the test with SK-MEL-2 melanoma it was greater than 100 µM; in the test with SNB-19 CNS, greater than 100 µM.
Regarding `CC[PH+](CC)CC.CC[PH+](CC)CC.[Au]`, the GI50 with HCT-15 colon is 6.24 µM; in the test with UACC-62 melanoma, 3.9 µM; in the test with TK-10 renal, 19.9 µM; with K-562 leukemia it was 5.98 µM; in the test with OVCAR-4 ovarian, 12.5 µM; with OVCAR-8 ovarian, 17.9 µM. In addition, the GI50 in the test with CCRF-CEM leukemia is 2.04 µM; in the test on NCI-H226 lung, 18.2 µM; in the test on SK-MEL-2 melanoma, 2.73 µM; in the test with SNB-19 CNS, 13.4 µM. Also, the TGI in the test with HCT-15 colon was 25.7 µM; in the test with UACC-62 melanoma, 19.1 µM; in the test with TK-10 renal, 35.7 µM; in the test on K-562 leukemia, 41.1 µM; in the test with OVCAR-4 ovarian, 25.1 µM; in the test on OVCAR-8 ovarian it was 38.1 µM. For the same compound, the TGI was determined as 11.9 µM in the test with CCRF-CEM leukemia, 37.5 µM in the test on NCI-H226 lung, 15.8 µM with SK-MEL-2 melanoma and 26.4 µM in the test on SNB-19 CNS.
For `N#Cc1c(N/N=C\c2ccc(Cl)cc2)nc(N)nc1N1CCOCC1`, the GI50 is 26.7 µM in the test with HCT-15 colon; 25.4 µM in the test with UACC-62 melanoma; 40.1 µM in the test with TK-10 renal; 13 µM in the test on K-562 leukemia; 94.4 µM in the test on OVCAR-4 ovarian; 31.4 µM in the test with OVCAR-8 ovarian. Moreover, the GI50 is 25.8 µM with CCRF-CEM leukemia, 53.6 µM in the test on NCI-H226 lung, 99.2 µM with SK-MEL-2 melanoma and greater than 100 µM with SNB-19 CNS. The TGI in the test on HCT-15 colon was 97.3 µM; in the test on UACC-62 melanoma, greater than 100 µM; with TK-10 renal, greater than 100 µM; with K-562 leukemia, 32.3 µM; in the test with OVCAR-4 ovarian it was greater than 100 µM; with OVCAR-8 ovarian, greater than 100 µM. For the same compound, the TGI is 78.9 µM with CCRF-CEM leukemia, greater than 100 µM with NCI-H226 lung, greater than 100 µM with SK-MEL-2 melanoma and greater than 100 µM in the test on SNB-19 CNS.
In the case of `O=C1CC(N2C(=O)/C(=C/C(Cl)=C\c3ccc([N+](=O)[O-])cc3)SC2=S)C(=O)N1c1ccc(O)cc1` (stereo not given), the GI50 in the test on HCT-15 colon is 0.472 µM; in the test on UACC-62 melanoma, 1.67 µM; with TK-10 renal, 1.92 µM; with K-562 leukemia, 0.603 µM; in the test with OVCAR-4 ovarian, 5.13 µM; with OVCAR-8 ovarian, 2.16 µM. Besides, the GI50 in the test with CCRF-CEM leukemia was 0.385 µM; in the test with NCI-H226 lung it was 2.41 µM; in the test on SK-MEL-2 melanoma, 2.74 µM; in the test on SNB-19 CNS, 1.34 µM. Further, the TGI in the test with HCT-15 colon came out at 1.95 µM; in the test with UACC-62 melanoma it was 3.38 µM; with TK-10 renal it was 3.79 µM; in the test with K-562 leukemia it was 9.55 µM; with OVCAR-4 ovarian, 17.3 µM; in the test with OVCAR-8 ovarian, 14.2 µM. In addition, the TGI in the test on CCRF-CEM leukemia worked out at 3.87 µM; with NCI-H226 lung, 6.82 µM; in the test on SK-MEL-2 melanoma, 7.83 µM; with SNB-19 CNS, 3.47 µM.
Regarding `CN(C)c1ccccc1[CH2][Ga]([Cl])[CH2]c1ccccc1N(C)C`, the GI50 in the test with HCT-15 colon is 0.698 µM; in the test with UACC-62 melanoma it was 0.717 µM; in the test on TK-10 renal it was 2.16 µM; in the test on K-562 leukemia it was 1.46 µM; in the test on OVCAR-4 ovarian, 1.24 µM; in the test with OVCAR-8 ovarian it was 1.47 µM. Also, the GI50 is 0.399 µM with CCRF-CEM leukemia, 0.537 µM in the test on NCI-H226 lung, 1.13 µM with SK-MEL-2 melanoma and 1.44 µM in the test with SNB-19 CNS. In addition, the TGI with HCT-15 colon was determined as 2.33 µM; in the test on UACC-62 melanoma, 2.08 µM; with TK-10 renal, 4.7 µM; with K-562 leukemia it was 4.46 µM; in the test with OVCAR-4 ovarian, 3.07 µM; in the test on OVCAR-8 ovarian, 3.23 µM. The TGI in the test on CCRF-CEM leukemia was found to be 4.82 µM; with NCI-H226 lung it was 1.95 µM; with SK-MEL-2 melanoma, 2.87 µM; with SNB-19 CNS, 2.86 µM.
As for `COc1cc(CCNC(=O)OC(C)(C)C)c2c(c1OC)SSSSS2`, the GI50 is 2.45 µM with HCT-15 colon; 3.93 µM with UACC-62 melanoma; 2.63 µM in the test on TK-10 renal; 2.45 µM with K-562 leukemia; 2.05 µM with OVCAR-4 ovarian; 3.53 µM in the test on OVCAR-8 ovarian. Moreover, the GI50 in the test with CCRF-CEM leukemia was 5.34 µM; in the test with NCI-H226 lung, 4.3 µM; in the test with SK-MEL-2 melanoma it was 2.45 µM; with SNB-19 CNS, 2.7 µM. Also, the TGI was determined as 5.78 µM with HCT-15 colon; 15.5 µM in the test with UACC-62 melanoma; 5.5 µM in the test on TK-10 renal; 21.3 µM in the test on K-562 leukemia; 4.82 µM in the test on OVCAR-4 ovarian; 11.7 µM in the test on OVCAR-8 ovarian. The TGI was 65.2 µM in the test with CCRF-CEM leukemia, 24.4 µM in the test on NCI-H226 lung, 5.68 µM with SK-MEL-2 melanoma and 5.63 µM with SNB-19 CNS.
`O=[N+]([O-])c1oc2ccc3ccccc3c2c1CCO`: the TGI is 34.2 µM with HCT-15 colon; 12.5 µM with UACC-62 melanoma; 27.7 µM in the test with TK-10 renal; greater than 100 µM in the test with K-562 leukemia; 17.3 µM in the test with OVCAR-4 ovarian; 23.1 µM in the test on OVCAR-8 ovarian. Besides, the TGI in the test on CCRF-CEM leukemia was determined as 39.9 µM; with NCI-H226 lung, 30.1 µM; in the test with SK-MEL-2 melanoma, 3.94 µM; in the test with SNB-19 CNS, 68.4 µM.
With `Cc1ccc(OCCOCCOCCOCCOCCOc2ccc(C)n(O)c2=S)c(=S)n1O`, the GI50 in the test with HCT-15 colon was 0.0392 µM; in the test on UACC-62 melanoma, 0.0815 µM; with TK-10 renal, 0.0826 µM; in the test with K-562 leukemia it was 0.0383 µM; with OVCAR-4 ovarian, 0.0339 µM; in the test with OVCAR-8 ovarian, 0.0384 µM. Also, the GI50 was 0.0504 µM in the test on CCRF-CEM leukemia, 0.0576 µM in the test with NCI-H226 lung, 4.81 µM with SK-MEL-2 melanoma and 0.118 µM in the test with SNB-19 CNS. For the same compound, the TGI is greater than 100 µM in the test on HCT-15 colon; 12.5 µM in the test on UACC-62 melanoma; greater than 100 µM in the test on TK-10 renal; greater than 100 µM with K-562 leukemia; 49.5 µM in the test on OVCAR-4 ovarian; greater than 100 µM in the test with OVCAR-8 ovarian. For the same compound, the TGI in the test with CCRF-CEM leukemia is greater than 100 µM; with NCI-H226 lung it was 14.7 µM; in the test with SK-MEL-2 melanoma, 40.5 µM; with SNB-19 CNS, greater than 100 µM.
